Experimental data reported in ChEMBL document CHEMBL3044675, “Synthesis and Antifungal Activities of Some Novel Pyrimidine Derivatives” (2011).

Assays:
Format in all cases: functional
Thanatephorus cucumeris = assay: Antifungal activity against Thanatephorus cucumeris at 50 ug/ml by poisoned food technique
Sclerotinia sclerotiorum = assay: Antifungal activity against Sclerotinia sclerotiorum at 50 ug/ml by poisoned food technique
Ceratobasidium cereale = assay: Antifungal activity against Ceratobasidium cereale at 50 ug/ml by poisoned food technique
Rhizoctonia solani = assay: Antifungal activity against Rhizoctonia solani at 50 ug/ml by poisoned food technique
Phytophthora infestans = assay: Antifungal activity against Phytophthora infestans at 50 ug/ml by poisoned food technique
Macrophoma = assay: Antifungal activity against Macrophoma kuwatsukai at 50 ug/ml by poisoned food technique
Fusarium fujikuroi = assay: Antifungal activity against Fusarium fujikuroi at 50 ug/ml by poisoned food technique
Fusarium graminearum = assay: Antifungal activity against Fusarium graminearum at 50 ug/ml by poisoned food technique
Mycosphaerella arachidis = assay: Antifungal activity against Mycosphaerella arachidis at 50 ug/ml by poisoned food technique
Bipolaris maydis = assay: Antifungal activity against Cochliobolus heterostrophus at 50 ug/ml by poisoned food technique
Botrytis cinerea = assay: Antifungal activity against Botryotinia fuckeliana at 50 ug/ml by poisoned food technique
Alternaria solani = assay: Antifungal activity against Alternaria solani at 50 ug/ml by poisoned food technique
Alternaria mali = assay: Antifungal activity against Alternaria mali at 50 ug/ml by poisoned food technique
Alternaria kikuchiana = assay: Antifungal activity against Alternaria kikuchiana at 50 ug/ml by poisoned food technique

Structure (SMILES): Cc1cc(OC(=O)N2CCOCC2)nc(C(C)C)n1
- Activity (Thanatephorus cucumeris): 19.6%
- Activity (Sclerotinia sclerotiorum): 0%
- Activity (Ceratobasidium cereale): 20%
- Activity (Rhizoctonia solani): 61.9%
- Activity (Phytophthora infestans): 0%
- Activity (Macrophoma): 31.3%
- Activity (Fusarium fujikuroi): 6.7%
- Activity (Fusarium graminearum): 7.4%
- Activity (Mycosphaerella arachidis): 6.7%
- Activity (Bipolaris maydis): 17.4%
- Activity (Botrytis cinerea): 18.5%
- Activity (Alternaria solani): 0%
- Activity (Alternaria mali): 0%
- Activity (Alternaria kikuchiana): 40.9%

Structure (SMILES): Cc1cc(O)no1 [HYMEXAZOL]
- Activity (Thanatephorus cucumeris): 78.4%
- Activity (Sclerotinia sclerotiorum): 66.7%
- Activity (Ceratobasidium cereale): 25%
- Activity (Rhizoctonia solani): 63.5%
- Activity (Phytophthora infestans): 36.4%
- Activity (Macrophoma): 50%
- Activity (Fusarium fujikuroi): 40%
- Activity (Fusarium graminearum): 33.3%
- Activity (Mycosphaerella arachidis): 93.3%
- Activity (Bipolaris maydis): 34.8%
- Activity (Botrytis cinerea): 70.4%
- Activity (Alternaria solani): 88.2%
- Activity (Alternaria mali): 85.7%
- Activity (Alternaria kikuchiana): 81.8%

Structure (SMILES): Cc1cc(Nc2ccc(OC(F)(F)F)cc2)nc(C(C)C)n1
- Activity (Thanatephorus cucumeris): 76.5%
- Activity (Sclerotinia sclerotiorum): 0%
- Activity (Ceratobasidium cereale): 25%
- Activity (Rhizoctonia solani): 66.7%
- Activity (Phytophthora infestans): 36.4%
- Activity (Macrophoma): 25%
- Activity (Fusarium fujikuroi): 40%
- Activity (Fusarium graminearum): 44.4%
- Activity (Mycosphaerella arachidis): 46.7%
- Activity (Bipolaris maydis): 39.1%
- Activity (Botrytis cinerea): 25.9%
- Activity (Alternaria solani): 35.3%
- Activity (Alternaria mali): 50%
- Activity (Alternaria kikuchiana): 63.6%

Structure (SMILES): COc1ccc(/C(=C\C(=O)N2CCOCC2)c2ccc(F)cc2)cc1OC [FLUMORPH]
- Activity (Thanatephorus cucumeris): 9.8%
- Activity (Sclerotinia sclerotiorum): 0%
- Activity (Ceratobasidium cereale): 20%
- Activity (Rhizoctonia solani): 61.9%
- Activity (Phytophthora infestans): 4.5%
- Activity (Macrophoma): 21.9%
- Activity (Fusarium fujikuroi): 13.3%
- Activity (Fusarium graminearum): 7.4%
- Activity (Mycosphaerella arachidis): 0%
- Activity (Bipolaris maydis): 17.4%
- Activity (Botrytis cinerea): 7.4%
- Activity (Alternaria solani): 0%
- Activity (Alternaria mali): 21.4%
- Activity (Alternaria kikuchiana): 18.2%

Structure (SMILES): Cc1cc(OC(=O)c2ccc(Cl)cc2)nc(C(C)C)n1
- Activity (Thanatephorus cucumeris): 0%
- Activity (Sclerotinia sclerotiorum): 60%
- Activity (Ceratobasidium cereale): 0%
- Activity (Rhizoctonia solani): 61.9%
- Activity (Phytophthora infestans): 13.6%
- Activity (Macrophoma): 37.5%
- Activity (Fusarium fujikuroi): 53.3%
- Activity (Fusarium graminearum): 40.7%
- Activity (Mycosphaerella arachidis): 6.7%
- Activity (Bipolaris maydis): 26.1%
- Activity (Botrytis cinerea): 33.3%
- Activity (Alternaria solani): 0%
- Activity (Alternaria mali): 21.4%
- Activity (Alternaria kikuchiana): 22.7%

Structure (SMILES): Cc1cc(NC2CCCCC2)nc(C(C)C)n1
- Activity (Thanatephorus cucumeris): 52.9%
- Activity (Sclerotinia sclerotiorum): 33.3%
- Activity (Ceratobasidium cereale): 0%
- Activity (Rhizoctonia solani): 55.6%
- Activity (Phytophthora infestans): 36.4%
- Activity (Macrophoma): 0%
- Activity (Fusarium fujikuroi): 13.3%
- Activity (Fusarium graminearum): 22.2%
- Activity (Mycosphaerella arachidis): 46.7%
- Activity (Bipolaris maydis): 13%
- Activity (Botrytis cinerea): 3.7%
- Activity (Alternaria solani): 0%
- Activity (Alternaria mali): 21.4%
- Activity (Alternaria kikuchiana): 27.3%

Structure (SMILES): COc1cc(C(=O)Oc2cc(C)nc(C(C)C)n2)cc(OC)c1OC
- Activity (Thanatephorus cucumeris): 9.8%
- Activity (Sclerotinia sclerotiorum): 66.7%
- Activity (Ceratobasidium cereale): 15%
- Activity (Rhizoctonia solani): 63.5%
- Activity (Macrophoma): 40.6%
- Activity (Fusarium fujikuroi): 20%
- Activity (Mycosphaerella arachidis): 6.7%
- Activity (Bipolaris maydis): 26.1%
- Activity (Botrytis cinerea): 14.8%
- Activity (Alternaria solani): 0%
- Activity (Alternaria mali): 28.6%
- Activity (Alternaria kikuchiana): 31.8%

Structure (SMILES): COC(=O)Nc1nc2ccccc2[nH]1 [CARBENDAZIM]
- Activity (Thanatephorus cucumeris): 98%
- Activity (Sclerotinia sclerotiorum): 73.3%
- Activity (Ceratobasidium cereale): 100%
- Activity (Rhizoctonia solani): 100%
- Activity (Phytophthora infestans): 27.3%
- Activity (Macrophoma): 43.8%
- Activity (Fusarium fujikuroi): 60%
- Activity (Fusarium graminearum): 59.3%
- Activity (Mycosphaerella arachidis): 53.3%
- Activity (Bipolaris maydis): 69.6%
- Activity (Botrytis cinerea): 63%
- Activity (Alternaria solani): 76.5%
- Activity (Alternaria mali): 78.6%
- Activity (Alternaria kikuchiana): 81.8%

Structure (SMILES): COc1cc(OC)nc(NCc2ccc(Cl)nc2)n1
- Activity (Thanatephorus cucumeris): 2%
- Activity (Sclerotinia sclerotiorum): 20%
- Activity (Ceratobasidium cereale): 5%
- Activity (Rhizoctonia solani): 54%
- Activity (Phytophthora infestans): 9.1%
- Activity (Macrophoma): 46.9%
- Activity (Fusarium fujikuroi): 20%
- Activity (Fusarium graminearum): 0%
- Activity (Mycosphaerella arachidis): 0%
- Activity (Bipolaris maydis): 17.4%
- Activity (Botrytis cinerea): 40.7%
- Activity (Alternaria solani): 0%
- Activity (Alternaria mali): 0%
- Activity (Alternaria kikuchiana): 18.2%

Structure (SMILES): Cc1cc(Nc2ccccc2)nc(C(C)C)n1
- Activity (Thanatephorus cucumeris): 39.2%
- Activity (Sclerotinia sclerotiorum): 0%
- Activity (Ceratobasidium cereale): 5%
- Activity (Rhizoctonia solani): 57.1%
- Activity (Phytophthora infestans): 0%
- Activity (Macrophoma): 21.9%
- Activity (Fusarium fujikuroi): 0%
- Activity (Fusarium graminearum): 7.4%
- Activity (Mycosphaerella arachidis): 33.3%
- Activity (Bipolaris maydis): 26.1%
- Activity (Botrytis cinerea): 7.4%
- Activity (Alternaria solani): 11.8%
- Activity (Alternaria mali): 21.4%
- Activity (Alternaria kikuchiana): 27.3%

Structure (SMILES): Cc1cc(C)nc(Nc2ccccc2)n1 [PYRIMETHANIL]
- Activity (Thanatephorus cucumeris): 98%
- Activity (Sclerotinia sclerotiorum): 86.7%
- Activity (Ceratobasidium cereale): 40%
- Activity (Rhizoctonia solani): 77.8%
- Activity (Phytophthora infestans): 22.7%
- Activity (Macrophoma): 100%
- Activity (Fusarium fujikuroi): 20%
- Activity (Fusarium graminearum): 44.4%
- Activity (Mycosphaerella arachidis): 100%
- Activity (Bipolaris maydis): 91.3%
- Activity (Botrytis cinerea): 96.3%
- Activity (Alternaria solani): 100%
- Activity (Alternaria mali): 21.4%
- Activity (Alternaria kikuchiana): 100%

Structure (SMILES): Cc1cc(OCc2cnc(Cl)s2)nc(C(C)C)n1
- Activity (Thanatephorus cucumeris): 3.9%
- Activity (Sclerotinia sclerotiorum): 0%
- Activity (Ceratobasidium cereale): 30%
- Activity (Rhizoctonia solani): 61.9%
- Activity (Phytophthora infestans): 0%
- Activity (Macrophoma): 31.3%
- Activity (Fusarium fujikuroi): 20%
- Activity (Fusarium graminearum): 14.8%
- Activity (Mycosphaerella arachidis): 0%
- Activity (Bipolaris maydis): 17.4%
- Activity (Botrytis cinerea): 7.4%
- Activity (Alternaria solani): 0%
- Activity (Alternaria mali): 0%
- Activity (Alternaria kikuchiana): 18.2%

Structure (SMILES): COc1cc(OC)nc(NCc2cnc(Cl)s2)n1
- Activity (Thanatephorus cucumeris): 2%
- Activity (Sclerotinia sclerotiorum): 0%
- Activity (Ceratobasidium cereale): 5%
- Activity (Rhizoctonia solani): 60.3%
- Activity (Phytophthora infestans): 0%
- Activity (Macrophoma): 46.9%
- Activity (Fusarium fujikuroi): 26.7%
- Activity (Fusarium graminearum): 29.6%
- Activity (Mycosphaerella arachidis): 13.3%
- Activity (Bipolaris maydis): 17.4%
- Activity (Botrytis cinerea): 37%
- Activity (Alternaria solani): 5.9%
- Activity (Alternaria mali): 21.4%
- Activity (Alternaria kikuchiana): 31.8%

Structure (SMILES): COc1ccc(C(=CC(=O)N2CCOCC2)c2ccc(Cl)cc2)cc1OC [DIMETHOMORPH]
- Activity (Thanatephorus cucumeris): 23.5%
- Activity (Sclerotinia sclerotiorum): 20%
- Activity (Ceratobasidium cereale): 40%
- Activity (Rhizoctonia solani): 68.3%
- Activity (Phytophthora infestans): 9.1%
- Activity (Macrophoma): 6.3%
- Activity (Fusarium fujikuroi): 20%
- Activity (Fusarium graminearum): 0%
- Activity (Mycosphaerella arachidis): 0%
- Activity (Bipolaris maydis): 17.4%
- Activity (Botrytis cinerea): 18.5%
- Activity (Alternaria solani): 5.9%
- Activity (Alternaria mali): 7.1%
- Activity (Alternaria kikuchiana): 22.7%

Structure (SMILES): Cc1cc(OC(=O)c2ccc(F)cc2)nc(C(C)C)n1
- Activity (Thanatephorus cucumeris): 15.7%
- Activity (Sclerotinia sclerotiorum): 40%
- Activity (Ceratobasidium cereale): 0%
- Activity (Rhizoctonia solani): 55.6%
- Activity (Phytophthora infestans): 18.2%
- Activity (Macrophoma): 46.9%
- Activity (Fusarium fujikuroi): 46.7%
- Activity (Mycosphaerella arachidis): 0%
- Activity (Bipolaris maydis): 13%
- Activity (Botrytis cinerea): 14.8%
- Activity (Alternaria solani): 0%
- Activity (Alternaria mali): 21.4%
- Activity (Alternaria kikuchiana): 27.3%

Structure (SMILES): Cc1cc(OCc2ccc(Cl)nc2)nc(C(C)C)n1
- Activity (Thanatephorus cucumeris): 80.4%
- Activity (Sclerotinia sclerotiorum): 0%
- Activity (Ceratobasidium cereale): 35%
- Activity (Rhizoctonia solani): 63.5%
- Activity (Phytophthora infestans): 22.7%
- Activity (Macrophoma): 31.3%
- Activity (Fusarium fujikuroi): 20%
- Activity (Fusarium graminearum): 25.9%
- Activity (Mycosphaerella arachidis): 13.3%
- Activity (Bipolaris maydis): 34.8%
- Activity (Botrytis cinerea): 29.6%
- Activity (Alternaria solani): 41.2%
- Activity (Alternaria mali): 21.4%
- Activity (Alternaria kikuchiana): 45.5%
